The subject of the experiment is secretion of endogenous insulin-degrading enzyme (IDE). Description: Secretion assay: effect of lovastatin on IDE secretion in COS-7 cells transfected with GFAP-ΔEx4 (Western immunoblot, ratio of IDE in medium to IDE in lysates). It counts as cell-based, monkey. As to conditions: Primates, 5 µM lovastatin for 15 hours, 36 hours post transfection, versus DMSO vehicle, read-out: increase of IDE secretion (ratio of IDE in the medium to IDE in the lysates) compared to GFAP-ΔEx4. As for the experimental part:
COS-7 cells, a fibroblast-like cell line from monkey kidney tissue (ATCC, USA), were cultured in Dulbecco's Modified Eagle Medium (DMEM) (Life Technologies) containing 10% Fetal calf serum (FCS) (Life Technologies) and 1% Penicillin/Streptomycin (PS) (Life Technologies) (DMEM +/+) and splitted into new dishes (Coming). For all experiments cells were counted by using a Neubauer counting chamber. To estimate cell number (cells/ml), the average number from four big squares of the Neubauer chamber was multiplied by 10'000 and the cell suspension was diluted to the desired cell concentration. […]
The effect of statins on the secretion of IDE disturbed by Alexander disease-causing mutation in the 2A rod region of GFAP was determined by cell transfection and pharmacological treatment in COS-7 cells.
Cells were seeded in 6 well plates day before the transfection to a 50% confluence in DMEM medium supplemented with 10% FCS/1% PS. […] Proteins were separated by sodium dodecyl sulfate-polyacrylamide gel electrophoresis (SDS-PAGE), transferred to nitrocellulose membranes (Whatman), and detected by Western immunoblotting using enhanced chemiluminescence detection (ChemiDoc XRS, Bio-Rad). Signals were quantified with Quantity One Software (Bio-Rad).
In general terms: A western blot detects proteins with antibodies after separation by electrophoresis.

For the molecule `CC[C@H](C)C(=O)O[C@H]1C[C@@H](C)C=C2C=C[C@H](C)[C@H](CC[C@@H]3C[C@@H](O)CC(=O)O3)[C@H]21` [lovastatin, [(1S,3R,7S,8S,8aR)-8-[2-[(2R,4R)-4-hydroxy-6-oxooxan-2-yl]ethyl]-3,7-dimethyl-1,2,3,7,8,8a-hexahydronaphthalen-1-yl] (2S)-2-methylbutanoate], the activation at 5 µM was ~100%.

Values taken from patent publication EP2839831A1, “Modulators of the unconventional secretory pathway for use in the treatment of Alexander disease” (Rheinische Friedrich-Wilhelms-Universität Bonn, priority 2013, dated 2015).
